Measured values taken from US20230416225A1, “DIAMINOPYRIMIDINE CARBOXAMIDE INHIBITORS OF HPK1” (MERCK SHARP & DOHME LLC, priority 2020, published 2023).

Molecular target: T1, Human HPK1, catalytic domain (Homo sapiens, UniProt Q92918)
T1 construct: purchased Carna
T1 sequence (Q92918 1-346): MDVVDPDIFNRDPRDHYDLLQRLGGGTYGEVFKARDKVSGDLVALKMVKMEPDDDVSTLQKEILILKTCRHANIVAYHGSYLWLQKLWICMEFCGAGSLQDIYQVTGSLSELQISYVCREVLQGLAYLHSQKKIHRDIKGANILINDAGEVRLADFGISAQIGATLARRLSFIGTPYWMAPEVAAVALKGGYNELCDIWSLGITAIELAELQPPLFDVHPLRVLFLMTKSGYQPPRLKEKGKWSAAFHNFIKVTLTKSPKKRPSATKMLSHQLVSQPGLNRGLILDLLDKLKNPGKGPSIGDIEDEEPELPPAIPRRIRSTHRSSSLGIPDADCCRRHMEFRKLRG
Assay: HPK1-SLP76 TR-FRET assay
Assay type: biochemical
Conditions: 75 pM HPK1, 10 uM ATP, 10 nM SLP76, 30 min compound pre-incubation

Row | Structure (SMILES) | IC50 [nM]
1 | Cc1cccc(Nc2ncc(C(N)=O)c(Nc3cccc4c3CCNC4=O)n2)c1 [Example 25-19, 2-[(3-methylphenyl)amino]-4-[(1-oxo-1,2,3,4-tetrahydroisoquinolin-5-yl)amino]pyrimidine-5-carboxamide] | 2.61
2 | COc1cc2c(cc1Nc1ncc(C(N)=O)c(Nc3cccc4nnc(C)cc34)n1)CN(C)CC2 [Example 7-6, 2-[(6-methoxy-2-methyl-1,2,3,4-tetrahydroisoquinolin-7-yl)amino]-4-[(3-methylcinnolin-5-yl)amino]pyrimidine-5-carboxamide] | 70.5
3 | NC(=O)c1cnc(Nc2ccc3c(c2)COC3=O)nc1Nc1ccccc1Br [Example 7-103, 4-[(2-bromopehnyl)amino]-2-[(1-oxo-1,3-dihydro-2-benzofuran-5-yl)amino]pyrimidine-5-carboxamide] | 188
4 | COc1cc2c(cc1Nc1ncc(C(N)=O)c(N[C@@H]3CCCC[C@H]3C(C)(C)O)n1)CN(C)CC2 [Example 26-42, 4-{[(1R,2R)-2-(2-hydroxypropan-2-yl)cyclohexyl]amino}-2-[(6-methoxy-2-methyl-1,2,3,4-tetrahydroisoquinolin-7-yl)amino]pyrimidine-5-carboxamide] | 205
5 | COc1cc2c(cc1Nc1ncc(C(N)=O)c(Nc3ccccc3Br)n1)CN(C1CC(CO)C1)CC2 (single isomer, unassigned) [Example 9-4, 4-((2-bromophenyl)amino)-2-((2-(3-(hydroxymethyl)cyclobutyl)-6-methoxy-1,2,3,4-tetrahydroisoquinolin-7-yl)amino)pyrimidine-5-carboxamide] | 0.18
6 | Cc1cccc(F)c1Nc1nc(Nc2cc3c(cc2Cl)CCN(C)C3)ncc1C(N)=O [Example 4-5, 2-[(6-chloro-2-methyl-1,2,3,4-tetrahydroisoquinolin-7-yl)amino]-4-[(2-fluoro-6-methylphenyl)amino] pyrimidine-5-carboxamide] | 0.61
7 | COc1cc2c(cc1Nc1ncc(C(N)=O)c(Nc3ccccc3C[C@H](O)c3ccccc3)n1)CN(C)CC2 [Example 13-9, 4-({2-[(2S)-2-hydroxy-2-phenylethyl]phenyl}amino)-2-[(6-methoxy-2-methyl-1,2,3,4-tetrahydroisoquinolin-7-yl)amino]pyrimidine-5-carboxamide] | 312
8 | Cn1ncc(Nc2ncc(C(N)=O)c(Nc3cccc4c3CCNC4=O)n2)c1C(F)(F)F [Example 7-56, 2-{[1-methyl-5-(trifluoromethyl)-1H-pyrazol-4-yl]amino}-4-[(1-oxo-1,2,3,4-tetrahydroisoquinolin-5-yl)amino]pyrimidine-5-carboxamide] | 249
9 | COc1cc2c(cc1Nc1ncc(C(N)=O)c(Nc3ccccc3-c3nccs3)n1)CN(C)CC2 [Example 14-2, 2-[(6-methoxy-2-methyl-1,2,3,4-tetrahydroisoquinolin-7-yl)amino]-4-{[2-(1,3-thiazol-2-yl)phenyl]amino}pyrimidine-5-carboxamide] | 0.26
10 | CN1Cc2ccc(Nc3ncc(C(N)=O)c(Nc4cccc5c4CCNC5)n3)cc2C1=O [Example 7-64, 2-[(2-methyl-3-oxo-2,3-dihydro-1H-isoindolin-5-yl)amino]-4-[(1,2,3,4-tetrahydroisoquinolin-5-yl)amino]pyrimidine-5-carboxamide] | 3.65
11 | Cc1cc(Nc2ncc(C(N)=O)c(Nc3cccc4c3CCNC4=O)n2)ccc1F [Example 25-30, 2-[(4-fluoro-3-methylphenyl)amino]-4-[(1-oxo-1,2,3,4-tetrahydroisoquinolin-5-yl)amino]pyrimidine-5-carboxamide] | 0.72
12 | Cn1cc(Nc2ncc(C(N)=O)c(Nc3cccc4c3CCNC4=O)n2)cn1 [Example 7-44, 2-[(1-methyl-1H-pyrazol-4-yl)amino]-4-[(1-oxo-1,2,3,4-tetrahydroisoquinolin-5-yl)amino]pyrimidine-5-carboxamide] | 4.69
13 | COCCOCCOCCCN1CCc2cc(OC)c(Nc3ncc(C(N)=O)c(Nc4ccccc4Br)n3)cc2C1 [Example 9-5, 4-((2-bromophenyl)amino)-2-((6-methoxy-2-(3-(2-(2-methoxyethoxy)ethoxy)propyl)-1,2,3,4-tetrahydroisoquinolin-7-yl)amino)pyrimidine-5-carboxamide] | 0.71
14 | COc1cc2c(cc1Nc1ncc(C(N)=O)c(Nc3ccccc3Br)n1)CN(C(C)C)CC2 [Example 9-8, 4-[(2-bromophenyl)amino]-2-{[6-methoxy-2-(propan-2-yl)-1,2,3,4-tetrahydroisoquinolin-7-yl]amino}pyrimidine-5-carboxamide] | 16.4
15 | COc1cc2c(cc1Nc1ncc(C(N)=O)c(NC3CCc4cccc(OC)c43)n1)CN(C)CC2 (stereo not drawn) [Example 26-34, 4-[(7-methoxy-2,3-dihydro-1H-inden-1-yl)amino]-2-[(6-methoxy-2-methyl-1,2,3,4-tetrahydroisoquinolin-7-yl)amino]pyrimidine-5-carboxamide] | 9.66
16 | NC(=O)c1cnc(NC2(c3ccccc3F)CC2)nc1Nc1cccc2c1CCNC2=O [Example 25-23, 2-{[1-(2-fluorophenyl)cyclopropyl]amino}-4-[(1-oxo-1,2,3,4-tetrahydroisoquinolin-5-yl)amino]pyrimidine-5-carboxamide] | 346
17 | COc1cc2c(cc1Nc1ncc(C(N)=O)c(NCc3ccccc3OC(F)(F)F)n1)CN(C)CC2 [Example 26-18, 2-[(6-methoxy-2-methyl-1,2,3,4-tetrahydroisoquinolin-7-yl)amino]-4-({[2-(trifluoromethoxy)phenyl]methyl}amino)pyrimidine-5-carboxamide] | 0.57
18 | COc1cc2c(cc1Nc1ncc(C(N)=O)c(NCc3ccccc3C(F)(F)F)n1)CN(C)CC2 [Example 26-21, 2-[(6-methoxy-2-methyl-1,2,3,4-tetrahydroisoquinolin-7-yl)amino]-4-({[2-(trifluoromethyl)phenyl]methyl}amino)pyrimidine-5-carboxamide] | 0.22
19 | CC(C1CC1)n1cc(Nc2ncc(C(N)=O)c(Nc3cccc4c3CCNC4=O)n2)cn1 (stereo not drawn) [Example 7-46, 2-{[1-(1-cyclopropylethyl)-1H-pyrazol-4-yl]amino}-4-[(1-oxo-1,2,3,4-tetrahydroisoquinolin-5-yl)amino]pyrimidine-5-carboxamide] | 0.28
20 | COc1cc2c(cc1Nc1ncc(C(N)=O)c(Nc3ccc(F)cc3F)n1)CN(C)CC2 [Example 4-10, 4-[(2,4-difluorophenyl)amino]-2-[(6-methoxy-2-methyl-1,2,3,4-tetrahydroisoquinolin-7-yl)amino]pyrimidine-5-carboxamide] | 1.34
21 | COc1cc2c(cc1Nc1ncc(C(N)=O)c(Nc3cccc(C(C)N)c3)n1)CN(C)CC2 (stereo not drawn) [Example 2-5, 4-{[3-(1-aminoethyl)phenyl]-amino}-2-[(6-methoxy-2-methyl-1,2,3,4-tetrahydroisoquinolin-7-yl)amino]pyrimidine-5-carboxamide] | 0.25
22 | COc1cc2c(cc1Nc1ncc(C(N)=O)c(N[C@H](CO)c3ccccc3)n1)CN(C)CC2 [Example 26-43, 4-{[(1S)-2-hydroxy-1-phenylethyl]amino}-2-[(6-methoxy-2-methyl-1,2,3,4-tetrahydroisoquinolin-7-yl)amino]pyrimidine-5-carboxamide] | 6.59
23 | COc1cc2c(cc1Nc1ncc(C(N)=O)c(N[C@H]3CC[C@H](C)CC3)n1)CN(C)CC2 [Example 26-29, 2-[(6-methoxy-2-methyl-1,2,3,4-tetrahydroisoquinolin-7-yl)amino]-4-[(trans-4-methylcyclohexyl)amino]pyrimidine-5-carboxamide] | 1.43
24 | NC(=O)c1cnc(Nc2ccc3c(c2)COC3=O)nc1N[C@H](CO)c1ccccc1 [Example 26-44, 4-{[(1S)-2-hydroxy-1-phenylethyl]amino}-2-[(1-oxo-1,3-dihydro-2-benzofuran-5-yl)amino]pyrimidine-5-carboxamide] | 92.1
25 | COc1cc2c(cc1Nc1ncc(C(N)=O)c(Nc3cccc(C)c3F)n1)CN(C)CC2 [Example 4-14] | 0.18
26 | COc1cc2c(cc1Nc1ncc(C(N)=O)c(Nc3ccccc3CN3CCOCC3)n1)CN(C)CC2 [Example 7-99, 2-[(6-methoxy-2-methyl-1,2,3,4-tetrahydroisoquinolin-7-yl)amino]-4-({2-[(morpholin-4-yl)methyl]phenyl}amino)pyrimi-dine-5-carboxamide] | 1.44
27 | NC(=O)c1cnc(Nc2cccc(C3CC3)c2)nc1Nc1cccc2c1CCNC2=O [Example 25-25, 2-[(3-cyclopropylphenyl)amino]-4-[(1-oxo-1,2,3,4-tetrahydroisoquinolin-5-yl)amino]pyrimidine-5-carboxamide] | 1.23
28 | COc1cc2c(cc1Nc1ncc(C(N)=O)c(Nc3ccccc3Br)n1)CN(C1CC(C#N)C1)CC2 (stereo not drawn) [Example 9-6, 4-((2-bromophenyl)amino)-2-((2-(3-cyanocyclobutyl)-6-methoxy-1,2,3,4-tetrahydroisoquinolin-7-yl)amino)pyrimidine-5-carboxamide] | 4.57
29 | COc1cc2c(cc1Nc1ncc(C(N)=O)c(Nc3c(F)cccc3C3CCOCC3)n1)CN(C)CC2 [Example 13-12, 4-{[2-fluoro-6-(oxan-4-yl)phenyl]amino}-2-[(6-methoxy-2-methyl-1,2,3,4-tetrahydroisoquinolin-7-yl)amino]pyrimidine-5-carboxamide] | 0.12
30 | COc1cc2c(cc1Nc1ncc(C(N)=O)c(Nc3c(O)cccc3F)n1)CN(C)CC2 [Example 4-17, 4-[(2-fluoro-6-hydroxyphenyl)amino]-2-[(6-methoxy-2-methyl-1,2,3,4-tetrahydroisoquinolin-7-yl)amino]pyrimidine-5-carboxamide] | 1.01
